From patent US8288424B2, “Substituted tetrahydroimidazopyridine compounds and the use thereof in the treatment of pain and other conditions” (Gruenenthal GmbH, priority 2008, dated 2012) come the findings set out here.

The target in the first experiment is T1, KCNQ2/3 channels (Homo sapiens, UniProt O43525+O43526).
T1 construct: expressed in transfected cells; host or cells: CHO-K1
The experiment is described as follows: Fluorescence assay using a voltage-sensitive dye. It is filed as cell-based. The settings on record: 10 μmol test substance; CHO-K1 cells expressing KCNQ2/3 channels; agonistic activity; read-out: % Stimulation [10 μmol] Average. On the procedure:
Fluorescence Assay Using a Voltage-Sensitive Dye
Human CHO-K1 cells expressing KCNQ2/3 channels are cultivated adherently at 37° C., 5% CO2 and 95% humidity in cell culture bottles (e.g. 80 cm^2 TC flasks, Nunc) with MEM Alpha Medium (1×, liquid, Invitrogen, #22571), 10% foetal calf serum (FCS) (Invitrogen, #10270-106, heat-inactivated) and the necessary selection antibiotics. Before being spread out for the measurements, the cells are washed with a 1×DPBS buffer without Ca^2+/Mg^2+ (e.g. Invitrogen, #14190-094) and detached from the bottom of the culture vessel by means of Accutase (PAA Laboratories, #L11-007) (incubation with Accutase for 15 min at 37° C.). The cell count then present is determined using a CASY™ cell counter (TCC model, Schärfe System) in order subsequently to apply 20,000 cells/well/100 μl of the described nutrient medium to 96-well measuring plates of the Corning™ CellBIND™ type (flat clear-bottom black polystyrene microplates, #3340). Incubation is then carried out for one hour at room temperature, without gassing or adjusting the humidity, followed by incubation for 24 hours at 37° C., 5% CO2 and 95% humidity.
The voltage-sensitive fluorescent dye from the Membrane Potential Assay Kit (Red bulk format part R8123 for FLIPR, Molecular Devices™) is prepared by dissolving the contents of a vessel of Membrane Potential Assay Kit Red Component A in 200 ml of extracellular buffer (ES buffer, 120 mM NaCl, 1 mM KCl, 10 mM HEPES, 2 mM CaCl2, 2 mM MgCl2, 10 mM glucose; pH 7.4). After removal of the nutrient medium, the cells are washed with 200 μl of ES buffer, then covered with a layer of 100 μl of the dye solution prepared above and incubated for 45 min at room temperature with exclusion of light.
The fluorescence measurements are carried out with a BMG Labtech FLUOstar™ or BMG Labtech POLARstar™ instrument (525 nm excitation, 560 nm emission, bottom-read mode). After incubation of the dye, 50 μl of the substances to be tested in the desired concentrations, or 50 μl of ES buffer for control purposes, are introduced into separate cavities of the measuring plate and incubated for 30 min at room temperature whilst being shielded from light. The fluorescence intensity of the dye is then measured for 5 min and the fluorescence value F1 of each well is thus determined at a given, constant time. 15 μl of a […] KCl solution ([…]) are then added to each well. The change in fluorescence is subsequently measured until all relevant measured values have been obtained (mainly 5-30 min). At a given time after KCl application, a fluorescence value F2 is determined, in this case at the time of the fluorescence peak.
For calculation, the fluorescence intensity F2 is compared with the fluorescence intensity F1, and the agonistic activity of the target compound on the potassium channel is determined therefrom. F2 and F1 are calculated as follows:
[formula] In order to determine whether a substance has an agonistic activity,
[formula] for example, can be compared with
[formula] of control cells.
[formula] is determined by adding to the reaction batch only the buffer solution instead of the substance to be tested, determining the value F1K of the fluorescence intensity, adding the potassium ions as described above and measuring a value F2K of the fluorescence intensity. Then F2K and F1K are calculated as follows:
[formula] A substance has an agonistic activity on the potassium channel when
[formula] is greater than
[formula] Independently of the comparison of
[formula] it is also possible to conclude that a target compound has an agonistic activity if an increase in
[formula] is to be observed as the dosage of the target compound increases. Calculations of EC50 and IC50 values are carried out with the aid of Prism 4 software (GraphPad Software™).
Regarding `COc1c(C)cc(C2CCc3nc(C(=O)NCc4cccc(C(F)(F)F)c4)cn3C2)cc1C` (stereo not shown) [Compound 17, 6-(4-Methoxy-3,5-dimethylphenyl)-N-(3-(trifluoromethyl)benzyl)-5,6,7,8-tetrahydroimidazo[1,2-a]pyridine-2-carboxamide], the activation at 10 µM was 18.5%.
For `Cc1ccccc1C1CCc2nc(C(=O)N3CCN(c4cccc(C(F)(F)F)c4)CC3)cn2C1` (stereo not shown) [Compound 35, (6-o-Tolyl-5,6,7,8-tetrahydroimidazo[1,2-a]pyridin-2-yl)(4-(3-(trifluoromethyl)-phenyl)piperazin-1-yl)methanone], the activation at 10 µM came to 20.9%.
Still for that read-out and setting: for `O=C(NC1CC1)c1cn2c(n1)CCC(c1ccc(Oc3ccccc3)cc1)C2` (stereo not shown) [Compound 26, N-Cyclopropyl-6-(4-phenoxyphenyl)-5,6,7,8-tetrahydroimidazo[1,2-a]pyridine-2-carboxamide] the value was 17.4%; for `O=C(c1cn2c(n1)CCC(c1cccc(F)c1)C2)N1CCC(Cc2ccccc2)CC1` (stereo not shown) [Compound 61, (4-Benzylpiperidin-1-yl)(6-(3-fluorophenyl)-5,6,7,8-tetrahydroimidazo[1,2-a]pyridin-2-yl)methanone], 82.2%; for `CCc1ccc(C2CCc3nc(C(=O)NC(C)CCc4ccccc4)cn3C2)cc1` (stereo not shown) [Compound 52, 6-(4-Ethylphenyl)-N-(4-phenylbutan-2-yl)-5,6,7,8-tetrahydroimidazo[1,2-a]pyridine-2-carboxamide], 34.2%.
Still for that read-out and setting: for `O=C(NCc1ccc2c(c1)OCO2)c1cn2c(n1)CCC(c1cc(C(F)(F)F)cc(C(F)(F)F)c1)C2` (stereo not shown) [Compound 42, N-(Benzo[d][1,3]dioxol-5-ylmethyl)-6-(3,5-bis(trifluoromethyl)phenyl)-5,6,7,8-tetrahydroimidazo[1,2-a]pyridine-2-carboxamide] the value was 18.1%; for `CCOC(=O)C1CCCN(C(=O)c2cn3c(n2)CCC(c2ccc(Oc4ccccc4)cc2)C3)C1` (stereo not shown) [Compound 22, Ethyl 1-(6-(4-phenoxyphenyl)-5,6,7,8-tetrahydroimidazo[1,2-a]pyridine-2-carbonyl)piperidine-3-carboxylate], 18%.
Same read-out and setting: for `Cc1cccc(C2CCc3nc(C(=O)N4CCCC4)cn3C2)c1` (stereo not shown) [Compound 29, Pyrrolidin-1-yl(6-m-tolyl-5,6,7,8-tetrahydroimidazo[1,2-a]pyridin-2-yl)methanone] the value was 26.2%; for `COc1cccc(C2CCc3nc(C(=O)N4CCN(c5cccc(C(F)(F)F)c5)CC4)cn3C2)c1` (stereo not shown) [Compound 71, (6-(3-Methoxyphenyl)-5,6,7,8-tetrahydroimidazo[1,2-a]pyridin-2-yl)(4-(3-(trifluoromethyl)phenyl)piperazin-1-yl)methanone], 115%.

The experiment is the same for the next values; noted with them: CHO-K1 cells expressing KCNQ2/3 channels; agonistic activity.
Usually EC50 stands for the concentration at which the effect is half-maximal. Read a high EC50 as a less potent agent. For the molecule `CC1CCN(C(=O)c2cn3c(n2)CCC(c2ccc(Oc4ccccc4)cc2)C3)CC1` (stereo not shown) [Compound 21, (4-Methylpiperidin-1-yl)(6-(4-phenoxyphenyl)-5,6,7,8-tetrahydroimidazo[1,2-a]pyridin-2-yl)methanone], the EC50 came out at 8.4 µM. In other words, the single-digit micromolar range.
On to `CCCCCNC(=O)c1cn2c(n1)CCC(c1ccc(Oc3ccccc3)cc1)C2` (stereo not shown) [Compound 28, N-Pentyl-6-(4-phenoxyphenyl)-5,6,7,8-tetrahydroimidazo[1,2-a]pyridine-2-carboxamide], for which a half-maximal effect (EC50) was put at 9.38 µM.
Take `COc1ccc(F)cc1C1CCc2nc(C(=O)N3CC4(C)CC3CC(C)(C)C4)cn2C1` (stereo not shown) [Compound 9, (6-(5-Fluoro-2-methoxyphenyl)-5,6,7,8-tetrahydroimidazo[1,2-a]pyridin-2-yl)(1,3,3-trimethyl-6-azabicyclo[3.2.1]octan-6-yl)methanone]: the concentration giving a half-maximal response (EC50) was found to be 11.9 µM.
Same read-out and setting: for `CCCCCCNC(=O)c1cn2c(n1)CCC(c1cc(C)c(OC)c(C)c1)C2` (stereo not shown) [Compound 16, N-Hexyl-6-(4-methoxy-3,5-dimethylphenyl)-5,6,7,8-tetrahydroimidazo[1,2-a]pyridine-2-carboxamide] the value was 3.95 µM.
